Experiment [1] addresses T1, human NLRP3 (Homo sapiens, UniProt Q96P20). Description: Human PBMC NLRP3 Assay (LPS priming, ATP stimulation, cytokine measurement). Type of experiment: cell-based. Also noted: host or cells: human PBMCs (A2); human whole blood from healthy volunteers (A3). Conditions: human PBMC, LPS + ATP. A digest of the protocol: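 Human PBMCs (5×10^4/well) primed with 100 ng/ml LPS for 4 h, then given compound for 30 min and stimulated with 5 mM ATP for 1 h at 37° C. Supernatant cytokines measured on the Mesoscale platform to give IC50. For TNFα selectivity, compound was added 30 min before LPS priming.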

Experiment [2] has as its target T1, human NLRP3. Description: Scintillation Proximity (SPA) NLRP3 Assay, displacement of 3H-MCC950. Type of experiment: binding. Conditions: displacement of 3H-MCC950 from human NLRP3. A digest of the protocol: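 Human NLRP3 (350 nM) preincubated 15 min at RT with compound (5% DMSO final) in HEPES pH 7.5 buffer with 100 μM ADP, then 125 nM 3H-MCC950 added for 60 min. Copper PVT SPA beads added; counts read 6 h later. Specific binding = signal minus no-protein wells, duplicates averaged; IC50 reported.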

For experiment [3], the target named is T1, human NLRP3. Description: Human Whole Blood (hWB) NLRP3 Assay (LPS/ATP, IL-1β). Set-up: host or cells: human whole blood from healthy volunteers (A3). Type of experiment: cell-based. Here is the method:
Human whole blood is drawn from healthy volunteers after obtaining written informed consent. Heparin lithium coated tubes are used to collect blood from volunteers. Blood samples are distributed on 96 well plates using 90 μl per well.
Priming procedure: Priming is performed by adding 5 μl of LPS (O26:B6; Sigma L-2654) at a final concentration of 1 μg/ml for 4.5 hours in a humidified incubator with 37° C., 5% CO2. Thirty minutes prior to NLRP3 activation, 5 μl of a 20× compound solution or vehicle (2% dimethylsulfoxide (DMSO)) is added to each well and plates were incubated on a shaker (450 rpm) in a humidified incubator with 37° C., 5% CO2.
Alternative priming procedure: Thirty minutes prior to LPS priming, 5 μl of a 20× compound solution or vehicle (2% dimethylsulfoxide (DMSO)) is added to each well and plates were incubated on a shaker (450 rpm) in a humidified incubator with 37° C., 5% CO2. Priming is performed by adding 5 μl of LPS (O26:B6; Sigma L-2654) at a final concentration of 1 μg/ml for 5 hours in a humidified incubator with 37° C., 5% CO2.
Activation is then performed by adding 3.3 μl of a 31×ATP solution per well. At the end of the 30 minutes stimulation, the plates are centrifuged (800 g, 10 min, room temperature) and the plasma from each well is frozen at −80° C. IL-1β levels in the supernatant were analyzed using a mesoscale discovery assay (MSD K151TUK) according to the manufacturers' instructions.
There is no detectable difference in assay results using the priming procedure versus the alternative priming procedure.
hWB NLRP3 IC50 assay results, as a measurement of whole blood potency, are provided in Table B. “A” activity=<1 uM; “B” activity=1-2 uM; “C” activity=>2-3 uM; “D” activity=>3 uM.

Structures are written as SMILES. Where only a bound is given, the exact number is not on record here.

T1 sequence (Q96P20 whole entry): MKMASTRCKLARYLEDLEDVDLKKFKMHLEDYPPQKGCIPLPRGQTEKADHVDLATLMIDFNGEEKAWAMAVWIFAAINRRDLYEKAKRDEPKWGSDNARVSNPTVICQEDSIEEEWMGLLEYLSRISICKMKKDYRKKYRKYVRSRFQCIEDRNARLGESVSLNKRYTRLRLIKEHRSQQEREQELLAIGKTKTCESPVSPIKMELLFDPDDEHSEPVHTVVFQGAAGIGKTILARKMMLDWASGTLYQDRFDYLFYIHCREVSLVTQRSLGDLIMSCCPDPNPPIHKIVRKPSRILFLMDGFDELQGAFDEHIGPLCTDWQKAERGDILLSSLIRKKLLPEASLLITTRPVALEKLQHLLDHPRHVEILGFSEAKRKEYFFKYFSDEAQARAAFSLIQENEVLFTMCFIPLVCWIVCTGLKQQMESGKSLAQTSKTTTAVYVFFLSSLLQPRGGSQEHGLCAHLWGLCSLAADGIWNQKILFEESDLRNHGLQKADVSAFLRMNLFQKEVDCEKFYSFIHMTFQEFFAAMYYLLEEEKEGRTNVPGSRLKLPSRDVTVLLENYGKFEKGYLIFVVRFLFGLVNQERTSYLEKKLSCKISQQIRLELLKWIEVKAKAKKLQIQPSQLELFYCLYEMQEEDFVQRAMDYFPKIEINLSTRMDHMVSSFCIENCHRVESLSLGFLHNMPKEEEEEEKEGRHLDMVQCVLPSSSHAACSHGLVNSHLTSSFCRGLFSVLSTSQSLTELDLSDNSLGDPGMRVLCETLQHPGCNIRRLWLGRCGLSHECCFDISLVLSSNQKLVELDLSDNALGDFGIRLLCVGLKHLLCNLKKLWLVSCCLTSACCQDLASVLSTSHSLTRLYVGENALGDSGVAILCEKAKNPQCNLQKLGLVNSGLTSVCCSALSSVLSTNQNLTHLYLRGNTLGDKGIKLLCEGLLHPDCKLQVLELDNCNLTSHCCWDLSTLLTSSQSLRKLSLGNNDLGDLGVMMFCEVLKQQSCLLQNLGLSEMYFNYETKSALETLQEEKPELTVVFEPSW

On to `C[C@@H]1CCN(c2nnn[nH]2)C[C@H](NC(=O)N(C)c2ccc(OC(F)F)c(F)c2F)C1` (single isomer, unassigned) [40A*], for which the half-maximal inhibitory concentration (IC50) was 10 to 100 nM at human NLRP3 [1] (Table B, activity class); below 1000 nM at human NLRP3 [2] (Table B, activity class); 1000 to 2000 nM on human NLRP3 [3] (Table B, activity class).

Take `C[C@@H]1CCN(c2nnn[nH]2)C[C@H](NC(=O)N(C)c2c(F)cc(OC(F)(F)F)cc2F)C1` (single isomer, unassigned) [41A*]: the IC50 on human NLRP3 [1] (Table B, activity class) was below 10 nM; at human NLRP3 [2] (Table B, activity class), below 1000 nM; against human NLRP3 [3] (Table B, activity class), below 1000 nM.

`C[C@@H]1C[C@@H](NC(=O)N(C)c2ccc(OC(F)F)cc2)[C@H]2CC[C@@H]1N2c1nnn[nH]1` (single isomer, unassigned) [42A*]: the IC50 on human NLRP3 [1] (Table B, activity class) was below 10 nM; at human NLRP3 [1] (Table C), 4.1 nM; at human NLRP3 [2] (Table B, activity class), below 1000 nM; on human NLRP3 [2] (Table C), 65 nM; at human NLRP3 [3] (Table B, activity class) it was below 1000 nM; on human NLRP3 [3] (Table C) it was 290 nM.

With `CCN(C(=O)N[C@@H]1C[C@H](C)CCN(c2nnn[nH]2)C1)c1ccc(OC(F)(F)F)cc1` (single isomer, unassigned) [43A*], the IC50 on human NLRP3 [1] (Table B, activity class) was below 10 nM; on human NLRP3 [2] (Table B, activity class), below 1000 nM; on human NLRP3 [3] (Table B, activity class), below 1000 nM.

With `C[C@@H]1C[C@@H](NC(=O)N(C)c2ccc(C3CC3)cc2)[C@H]2CC[C@@H]1N2c1nnn[nH]1` (single isomer, unassigned) [46A*], the IC50 was below 10 nM at human NLRP3 [1] (Table B, activity class); below 1000 nM on human NLRP3 [2] (Table B, activity class); below 1000 nM on human NLRP3 [3] (Table B, activity class).

Regarding `C[C@@H]1C[C@@H](NC(=O)N(C)c2ccc(C(F)(F)F)c(F)c2)[C@H]2CC[C@@H]1N2c1nnn[nH]1` (single isomer, unassigned) [49A*], the IC50 was 10 to 100 nM at human NLRP3 [1] (Table B, activity class); below 1000 nM at human NLRP3 [2] (Table B, activity class); 1000 to 2000 nM on human NLRP3 [3] (Table B, activity class).

For `C[C@@H]1C[C@@H](NC(=O)N(C)c2ccc(OC(F)F)c(F)c2)[C@H]2CC[C@@H]1N2c1nnn[nH]1` (single isomer, unassigned) [52A*], the IC50 at human NLRP3 [1] (Table B, activity class) was 10 to 100 nM; at human NLRP3 [2] (Table B, activity class) it was below 1000 nM; against human NLRP3 [3] (Table B, activity class), below 1000 nM.

`C[C@@H]1C[C@@H](NC(=O)N(C)c2ccc(C3CC3)c(F)c2)[C@H]2CC[C@@H]1N2c1nnn[nH]1` (single isomer, unassigned) [54A*]: the IC50 on human NLRP3 [1] (Table B, activity class) is below 10 nM; at human NLRP3 [2] (Table B, activity class) it was below 1000 nM; against human NLRP3 [3] (Table B, activity class), below 1000 nM.

On to `C[C@@H]1C[C@@H](NC(=O)N(C)c2ccc(OC(F)F)cc2F)[C@H]2CC[C@@H]1N2c1nnn[nH]1` (single isomer, unassigned) [57A*], for which the IC50 on human NLRP3 [1] (Table B, activity class) was below 10 nM; at human NLRP3 [1] (Table C), 3.1 nM; at human NLRP3 [2] (Table B, activity class) it was below 1000 nM; at human NLRP3 [2] (Table C), 199 nM; against human NLRP3 [3] (Table B, activity class), below 1000 nM; on human NLRP3 [3] (Table C), 190 nM.

For the molecule `C[C@@H]1C[C@@H](NC(=O)N(C)c2ccc(OC(F)(F)F)c(F)c2F)[C@H]2CC[C@@H]1N2c1nnn[nH]1` (single isomer, unassigned) [59A*], the IC50 on human NLRP3 [1] (Table B, activity class) is 100 to 500 nM; at human NLRP3 [2] (Table B, activity class), below 1000 nM; on human NLRP3 [3] (Table B, activity class), 2000 to 3000 nM.

For `C[C@@H]1C[C@@H](NC(=O)N(C)c2c(F)cc(C3CC3)cc2F)[C@H]2CC[C@@H]1N2c1nnn[nH]1` (single isomer, unassigned) [60A*], the IC50 at human NLRP3 [1] (Table B, activity class) was below 10 nM; at human NLRP3 [2] (Table B, activity class), below 1000 nM; against human NLRP3 [3] (Table B, activity class) it was below 1000 nM.

As to `C[C@@H]1C[C@@H](NC(=O)N(C)c2c(F)cc(OC(F)F)cc2F)[C@H]2CC[C@@H]1N2c1nnn[nH]1` (single isomer, unassigned) [61A*], the IC50 on human NLRP3 [1] (Table B, activity class) is below 10 nM; on human NLRP3 [2] (Table B, activity class) it was below 1000 nM; against human NLRP3 [3] (Table B, activity class), below 1000 nM.

As for `C[C@@H]1C[C@@H](NC(=O)N(C)c2c(F)cc(OC(F)(F)F)cc2F)[C@H]2CC[C@@H]1N2c1nnn[nH]1` (single isomer, unassigned) [62A*], the IC50 on human NLRP3 [1] (Table B, activity class) is 10 to 100 nM; at human NLRP3 [2] (Table B, activity class), below 1000 nM; against human NLRP3 [3] (Table B, activity class), below 1000 nM.

For `C[C@@H]1C[C@@H](NC(=O)N(C)c2ccc(OC(F)F)c(OC(F)F)c2)[C@H]2CC[C@@H]1N2c1nnn[nH]1` (single isomer, unassigned) [64A*], the IC50 at human NLRP3 [1] (Table B, activity class) is 10 to 100 nM; on human NLRP3 [2] (Table B, activity class) it was below 1000 nM; against human NLRP3 [3] (Table B, activity class), below 1000 nM.

Usually IC50 stands for the point on the concentration scale where inhibition reaches its midpoint.

The record behind these values is US20260008768A1, “UREA DERIVATIVES FOR INHIBITING NLRP3 AND USES THEREOF” (VENTUS THERAPEUTICS U.S., INC., priority 2023, published 2026).
